Laboratory results as given in ChEMBL document CHEMBL5724806, “Unraveling interindividual differences and functional consequences of gut microbial metabolism of immunosuppressants” (2024).

Columns and labels:
Format in all cases: ADME
[1] = (§1) The drug is tested on Bifidobacterium adolescentis strain: DSM20083 for biotransformation under anaerobic condition. The drug concentrations were measured over 6 timepoints collected between 0 and 12 hours of incubation by liquid-chromatography-coupled mass spectrometry (LC–MS); set-up: dose 5 uM, timepoint 0, 1.5, 3, 6, 9, 12 hours; conditions: 5 µM
[2] = The drug is tested on Bacteroides caccae strain: DSM19024 for biotransformation under anaerobic condition. The drug concentrations were measured over 6 timepoints collected between 0 and 12 hours of incubation by liquid-chromatography-coupled mass spectrometry (LC–MS); set-up: dose 5 uM, timepoint 0, 1.5, 3, 6, 9, 12 hours; conditions: 5 µM
[3] = The drug is tested on Bacteroides stercoris strain: HM 1036 for biotransformation under anaerobic condition. The drug concentrations were measured over 6 timepoints collected between 0 and 12 hours of incubation by liquid-chromatography-coupled mass spectrometry (LC–MS); set-up: dose 5 uM, timepoint 0, 1.5, 3, 6, 9, 12 hours; conditions: 5 µM
[4] = The drug is tested on Parabacteroides merdae strain: DSM19495 for biotransformation under anaerobic condition. The drug concentrations were measured over 6 timepoints collected between 0 and 12 hours of incubation by liquid-chromatography-coupled mass spectrometry (LC–MS); set-up: dose 5 uM, timepoint 0, 1.5, 3, 6, 9, 12 hours; conditions: 5 µM
[5] = The drug is tested on Prevotella copri strain: DSM18205 for biotransformation under anaerobic condition. The drug concentrations were measured over 6 timepoints collected between 0 and 12 hours of incubation by liquid-chromatography-coupled mass spectrometry (LC–MS); set-up: dose 5 uM, timepoint 0, 1.5, 3, 6, 9, 12 hours; conditions: segatella copri, 5 µM
[6] = The drug is tested on Clostridium scindens strain: DSM5676 for biotransformation under anaerobic condition. The drug concentrations were measured over 6 timepoints collected between 0 and 12 hours of incubation by liquid-chromatography-coupled mass spectrometry (LC–MS); set-up: dose 5 uM, timepoint 0, 1.5, 3, 6, 9, 12 hours; conditions: 5 µM
[7] = The drug is tested on Coprococcus comes strain: ATCC27758 for biotransformation under anaerobic condition. The drug concentrations were measured over 6 timepoints collected between 0 and 12 hours of incubation by liquid-chromatography-coupled mass spectrometry (LC–MS); set-up: dose 5 uM, timepoint 0, 1.5, 3, 6, 9, 12 hours; conditions: 5 µM
[8] = The drug is tested on Dorea formicigenerans strain: DSM3992 for biotransformation under anaerobic condition. The drug concentrations were measured over 6 timepoints collected between 0 and 12 hours of incubation by liquid-chromatography-coupled mass spectrometry (LC–MS); set-up: dose 5 uM, timepoint 0, 1.5, 3, 6, 9, 12 hours; conditions: 5 µM
[9] = The drug is tested on Eubacterium eligens strain: DSM3376 for biotransformation under anaerobic condition. The drug concentrations were measured over 6 timepoints collected between 0 and 12 hours of incubation by liquid-chromatography-coupled mass spectrometry (LC–MS); set-up: dose 5 uM, timepoint 0, 1.5, 3, 6, 9, 12 hours; conditions: lachnospira eligens, 5 µM
[10] = The drug is tested on Lactobacillus gasseri strain: DSM20243 for biotransformation under anaerobic condition. The drug concentrations were measured over 6 timepoints collected between 0 and 12 hours of incubation by liquid-chromatography-coupled mass spectrometry (LC–MS); set-up: dose 5 uM, timepoint 0, 1.5, 3, 6, 9, 12 hours; conditions: 5 µM
[11] = The drug is tested on Streptococcus mitis strain: DSM12643 for biotransformation under anaerobic condition. The drug concentrations were measured over 6 timepoints collected between 0 and 12 hours of incubation by liquid-chromatography-coupled mass spectrometry (LC–MS); set-up: dose 5 uM, timepoint 0, 1.5, 3, 6, 9, 12 hours; conditions: 5 µM
[12] = The drug is tested on Enterococcus faecalis strain: ATCC29212 for biotransformation under anaerobic condition. The drug concentrations were measured over 6 timepoints collected between 0 and 12 hours of incubation by liquid-chromatography-coupled mass spectrometry (LC–MS); set-up: dose 5 uM, timepoint 0, 1.5, 3, 6, 9, 12 hours; conditions: 5 µM
[13] = (§2) The drug is tested on Actinomyces naeslundi strain: DSM43013 for biotransformation under microaerobic condition. The drug concentrations were measured over 6 timepoints collected between 0 and 12 hours of incubation by liquid-chromatography-coupled mass spectrometry (LC–MS); set-up: dose 5 uM, timepoint 0, 1.5, 3, 6, 9, 12 hours; conditions: actinomyces naeslundii, 5 µM
[14] = The drug is tested on Alloscardovia omnicolens strain: DSM21503 for biotransformation under microaerobic condition. The drug concentrations were measured over 6 timepoints collected between 0 and 12 hours of incubation by liquid-chromatography-coupled mass spectrometry (LC–MS); set-up: dose 5 uM, timepoint 0, 1.5, 3, 6, 9, 12 hours; conditions: 5 µM
[15] = The drug is tested on Capnocytophaga ochracea strain: DSM7271 for biotransformation under microaerobic condition. The drug concentrations were measured over 6 timepoints collected between 0 and 12 hours of incubation by liquid-chromatography-coupled mass spectrometry (LC–MS); set-up: dose 5 uM, timepoint 0, 1.5, 3, 6, 9, 12 hours; conditions: 5 µM
[16] = The drug is tested on Lactobacillus fermentum strain: DSM20052 for biotransformation under microaerobic condition. The drug concentrations were measured over 6 timepoints collected between 0 and 12 hours of incubation by liquid-chromatography-coupled mass spectrometry (LC–MS); set-up: dose 5 uM, timepoint 0, 1.5, 3, 6, 9, 12 hours; conditions: limosilactobacillus fermentum, 5 µM
[17] = The drug is tested on Lactobacillus ruminis strain: ATCC25644 for biotransformation under microaerobic condition. The drug concentrations were measured over 6 timepoints collected between 0 and 12 hours of incubation by liquid-chromatography-coupled mass spectrometry (LC–MS); set-up: dose 5 uM, timepoint 0, 1.5, 3, 6, 9, 12 hours; conditions: ligilactobacillus ruminis, 5 µM
[18] = The drug is tested on Streptococcus sanguinis strain: DSM20567 for biotransformation under microaerobic condition. The drug concentrations were measured over 6 timepoints collected between 0 and 12 hours of incubation by liquid-chromatography-coupled mass spectrometry (LC–MS); set-up: dose 5 uM, timepoint 0, 1.5, 3, 6, 9, 12 hours; conditions: 5 µM
[19] = as §1, with “the gut metagenome community of A-04 with ENA study accession number: PRJEB31790” for “Bifidobacterium adolescentis strain: DSM20083”, “7” for “6”; set-up: dose 5 uM, timepoint 0, 0.75, 1.5, 3, 6, 9, 12 hours; conditions: 5 µM
[20] = as §1, with “the gut metagenome community of A-08 with ENA study accession number: PRJEB31790” for “Bifidobacterium adolescentis strain: DSM20083”, “7” for “6”; set-up: dose 5 uM, timepoint 0, 0.75, 1.5, 3, 6, 9, 12 hours; conditions: 5 µM
[21] = as §1, with “the gut metagenome community of T-02 with ENA study accession number: PRJEB31790” for “Bifidobacterium adolescentis strain: DSM20083”, “7” for “6”; set-up: dose 5 uM, timepoint 0, 0.75, 1.5, 3, 6, 9, 12 hours; conditions: 5 µM
[22] = as §1, with “the gut metagenome community of T-03 with ENA study accession number: PRJEB31790” for “Bifidobacterium adolescentis strain: DSM20083”, “7” for “6”; set-up: dose 5 uM, timepoint 0, 0.75, 1.5, 3, 6, 9, 12 hours; conditions: 5 µM
[23] = as §2, with “the gut metagenome community of A-05 with ENA study accession number: PRJEB31790” for “Actinomyces naeslundi strain: DSM43013”, “7” for “6”; set-up: dose 5 uM, timepoint 0, 0.75, 1.5, 3, 6, 9, 12 hours; conditions: 5 µM
[24] = as §2, with “the gut metagenome community of A-06 with ENA study accession number: PRJEB31790” for “Actinomyces naeslundi strain: DSM43013”, “7” for “6”; set-up: dose 5 uM, timepoint 0, 0.75, 1.5, 3, 6, 9, 12 hours; conditions: 5 µM
[25] = as §2, with “the gut metagenome community of A-07 with ENA study accession number: PRJEB31790” for “Actinomyces naeslundi strain: DSM43013”, “7” for “6”; set-up: dose 5 uM, timepoint 0, 0.75, 1.5, 3, 6, 9, 12 hours; conditions: 5 µM
[26] = as §2, with “the gut metagenome community of A-10 with ENA study accession number: PRJEB31790” for “Actinomyces naeslundi strain: DSM43013”, “7” for “6”; set-up: dose 5 uM, timepoint 0, 0.75, 1.5, 3, 6, 9, 12 hours; conditions: 5 µM
[27] = as §2, with “the gut metagenome community of P-01 with ENA study accession number: PRJEB31790” for “Actinomyces naeslundi strain: DSM43013”, “7” for “6”; set-up: dose 5 uM, timepoint 0, 0.75, 1.5, 3, 6, 9, 12 hours; conditions: 5 µM
[28] = as §2, with “the gut metagenome community of P-03 with ENA study accession number: PRJEB31790” for “Actinomyces naeslundi strain: DSM43013”, “7” for “6”; set-up: dose 5 uM, timepoint 0, 0.75, 1.5, 3, 6, 9, 12 hours; conditions: 5 µM
[29] = as §2, with “the gut metagenome community of T-01 with ENA study accession number: PRJEB31790” for “Actinomyces naeslundi strain: DSM43013”, “7” for “6”; set-up: dose 5 uM, timepoint 0, 0.75, 1.5, 3, 6, 9, 12 hours; conditions: 5 µM
[30] = as §2, with “the gut metagenome community of T-05 with ENA study accession number: PRJEB31790” for “Actinomyces naeslundi strain: DSM43013”, “7” for “6”; set-up: dose 5 uM, timepoint 0, 0.75, 1.5, 3, 6, 9, 12 hours; conditions: 5 µM

For C=CC[C@@H]1/C=C(\C)C[C@H](C)C[C@H](OC)[C@H]2O[C@@](O)(C(=O)C(=O)N3CCCC[C@H]3C(=O)O[C@H](/C(C)=C/[C@@H]3CC[C@@H](O)[C@H](OC)C3)[C@H](C)[C@@H](O)CC1=O)[C@H](C)C[C@@H]2OC.O [TACROLIMUS], the “Bacterial Biotransformation” value [1] was “Compound NOT metabolized”, the “Bacterial Biotransformation” value [2] was “Compound NOT metabolized” and the “Bacterial Biotransformation” value [3] was “Compound NOT metabolized”. The “Bacterial Biotransformation” value [4] was “Compound NOT metabolized”, the “Bacterial Biotransformation” value [5] was “Compound NOT metabolized” and the “Bacterial Biotransformation” value [6] was “Compound metabolized”. The “Bacterial Biotransformation” value [7] was “Compound metabolized”, the “Bacterial Biotransformation” value [8] was “Compound metabolized” and the “Bacterial Biotransformation” value [9] was “Compound NOT metabolized”. For the same molecule, the “Bacterial Biotransformation” value [10] was “Compound NOT metabolized”, the “Bacterial Biotransformation” value [11] was “Compound NOT metabolized” and the “Bacterial Biotransformation” value [12] was “Compound metabolized”. For the same molecule, the “Bacterial Biotransformation” value [13] was “Compound NOT metabolized”, the “Bacterial Biotransformation” value [14] was “Compound NOT metabolized” and the “Bacterial Biotransformation” value [15] was “Compound NOT metabolized”. For the same molecule, the “Bacterial Biotransformation” value [16] was “Compound NOT metabolized”, the “Bacterial Biotransformation” value [17] was “Compound NOT metabolized” and the “Bacterial Biotransformation” value [18] was “Compound NOT metabolized”. For the same molecule, the “Bacterial Biotransformation” value [19] was “Compound metabolized”, the “Bacterial Biotransformation” value [20] was “Compound metabolized” and the “Bacterial Biotransformation” value [21] was “Compound metabolized”. For the same molecule, the “Bacterial Biotransformation” value [22] was “Compound NOT metabolized”, the “Bacterial Biotransformation” value [23] was “Compound metabolized” and the “Bacterial Biotransformation” value [24] was “Compound metabolized”. For the same molecule, the “Bacterial Biotransformation” value [25] was “Compound metabolized”, the “Bacterial Biotransformation” value [26] was “Compound metabolized” and the “Bacterial Biotransformation” value [27] was “Compound NOT metabolized”. For the same molecule, the “Bacterial Biotransformation” value [28] was “Compound NOT metabolized”, the “Bacterial Biotransformation” value [29] was “Compound metabolized” and the “Bacterial Biotransformation” value [30] was “Compound metabolized”.
